# Values of other authors as cited in patent US12697345B2, “Microparticles containing stabilized CBD oil, and methods for the production thereof” (priority 2021, dated 2026).
# Key:
# [1] = aerosolized
# [2] = 600 mg oral CBD, healthy male volunteers
# [3] = estimated
structure (smiles),measurement,setting,value
"C=C(C)[C@@H]1CCC(C)=CC1c1c(O)cc(CCCCC)cc1O (stereo partly drawn) [CBD, 2-[(6R)-3-methyl-6-prop-1-en-2-ylcyclohex-2-en-1-yl]-5-pentylbenzene-1,3-diol]",Time to peak plasma concentrations,[1],5 to 10 min
same,mean±SD whole blood level of CBD at 1 hour,[2]; 1 h,0.36 (0.64) ng/mL
same,mean±SD whole blood level of CBD at 2 hours,[2]; 2 h,1.62 (2.98) ng/mL
same,mean±SD whole blood level of CBD at 3 hours,[2]; 3 h,3.4 (6.42) ng/mL
same,Bioavailability from oral delivery,[3],6%
